Values of other authors as cited in patent US12029733B2, “Treatment of sepsis and related inflammatory conditions by local neuromodulation of the autonomic nervous system” (Tulavi Therapeutics, Inc., priority 2016, dated 2024).

How the values were obtained:
FFA1 = FFA1 (Homo sapiens, UniProt O14842); conditions: marked *: FFA1 ERK activation (Smith et al. 2009) / aequorin reporter Ca2+ signaling (Kotarsky et al. 2003)
GPR120 = target: T1, GPR120 (Homo sapiens, UniProt Q5NUL3); conditions: fluorescent indicator measurement of Ca2+ mobilization
T1 sequence (Q5NUL3 1-361): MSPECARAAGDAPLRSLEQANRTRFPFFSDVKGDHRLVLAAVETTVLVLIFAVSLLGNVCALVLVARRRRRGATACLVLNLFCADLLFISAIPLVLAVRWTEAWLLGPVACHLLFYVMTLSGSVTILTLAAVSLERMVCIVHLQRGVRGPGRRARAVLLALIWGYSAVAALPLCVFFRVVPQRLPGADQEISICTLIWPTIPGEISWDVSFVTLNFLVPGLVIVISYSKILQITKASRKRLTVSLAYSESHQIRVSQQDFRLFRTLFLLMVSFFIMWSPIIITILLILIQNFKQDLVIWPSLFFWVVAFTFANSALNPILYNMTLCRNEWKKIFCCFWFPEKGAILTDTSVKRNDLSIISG

KCC2 = target: T2, KCC2 (Homo sapiens, UniProt Q9H2X9)
T2 sequence (Q9H2X9 1-1139): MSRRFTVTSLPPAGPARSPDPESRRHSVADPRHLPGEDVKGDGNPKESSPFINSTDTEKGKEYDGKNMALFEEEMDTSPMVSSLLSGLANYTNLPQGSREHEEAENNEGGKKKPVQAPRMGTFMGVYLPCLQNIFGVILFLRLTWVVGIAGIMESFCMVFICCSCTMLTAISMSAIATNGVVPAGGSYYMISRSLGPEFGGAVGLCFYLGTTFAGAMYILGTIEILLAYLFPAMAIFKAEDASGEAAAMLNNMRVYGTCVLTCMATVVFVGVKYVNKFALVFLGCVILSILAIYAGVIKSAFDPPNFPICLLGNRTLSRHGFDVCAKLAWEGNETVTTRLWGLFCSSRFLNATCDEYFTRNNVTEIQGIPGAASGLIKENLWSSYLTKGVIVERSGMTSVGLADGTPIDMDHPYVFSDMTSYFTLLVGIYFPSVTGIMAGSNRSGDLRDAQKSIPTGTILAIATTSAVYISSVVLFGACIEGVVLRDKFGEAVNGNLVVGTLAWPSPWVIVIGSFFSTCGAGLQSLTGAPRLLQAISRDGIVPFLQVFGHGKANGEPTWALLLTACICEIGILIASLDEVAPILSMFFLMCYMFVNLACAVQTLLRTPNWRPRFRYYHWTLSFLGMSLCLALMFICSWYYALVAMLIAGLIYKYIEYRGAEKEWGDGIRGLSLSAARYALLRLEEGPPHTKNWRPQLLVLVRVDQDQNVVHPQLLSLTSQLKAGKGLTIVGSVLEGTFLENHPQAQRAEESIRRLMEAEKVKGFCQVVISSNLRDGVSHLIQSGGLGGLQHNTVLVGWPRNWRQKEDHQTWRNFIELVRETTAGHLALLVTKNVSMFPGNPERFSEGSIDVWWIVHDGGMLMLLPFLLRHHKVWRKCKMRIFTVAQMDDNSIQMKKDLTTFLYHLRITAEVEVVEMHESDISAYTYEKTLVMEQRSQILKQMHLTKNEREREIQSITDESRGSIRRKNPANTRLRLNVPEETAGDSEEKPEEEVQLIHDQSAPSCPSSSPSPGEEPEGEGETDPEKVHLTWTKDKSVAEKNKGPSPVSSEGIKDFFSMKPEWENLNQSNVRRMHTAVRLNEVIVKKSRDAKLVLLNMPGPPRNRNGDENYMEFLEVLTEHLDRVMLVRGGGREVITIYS

[1] = in vivo

Sequence of FFA1 (O14842 whole entry): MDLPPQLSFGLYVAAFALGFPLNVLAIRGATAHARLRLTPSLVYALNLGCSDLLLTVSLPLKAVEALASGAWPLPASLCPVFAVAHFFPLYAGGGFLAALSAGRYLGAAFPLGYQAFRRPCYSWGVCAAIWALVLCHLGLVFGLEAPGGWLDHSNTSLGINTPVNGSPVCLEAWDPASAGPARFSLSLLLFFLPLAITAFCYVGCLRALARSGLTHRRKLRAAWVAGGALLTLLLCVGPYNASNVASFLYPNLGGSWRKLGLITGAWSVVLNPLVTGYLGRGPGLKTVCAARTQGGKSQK

SMILES	FFA1 pEC50 (FFA1)	GPR120 pEC50 (GPR120)	also measured
CC(C)(CCCCCCCCCCC(C)(C)CC(=O)O)CC(=O)O [MEDICA16]	5.5-5.9*	<5.0	
CCCCCCCC/C=C\CCCCCCCC(=O)O [Oleic acid (C18:l), Oleic acid]		4.5	
CCCCCCCCCCCCCCCC(=O)O [Palmitic Acid (C16:0), Palmitic Acid]		4.3	
CN(CCOc1ccc(CC2SC(=O)NC2=O)cc1)c1ccccn1 (stereo not shown) [Rosiglitazone]	5.0-5.6*		
Cc1csc(NC(=O)CSc2ccc(-c3ccccc3)nn2)n1 [VU0240551]			selectivity KCC2 over NKCC1 (KCC2): selective for KCC2 over NKCC1
N=C(N)NC(=O)c1cnn(-c2cccc3ncccc23)c1C1CC1 [Zoniporide]			neurotoxic effects [1]: causes peripheral sensory axonopathy
